In BindingDB's records for doi:10.1124/jpet.104.074864 (University of Piemonte Orientale, 2005):

Tests used:
[1] = target: T1, Fatty-acid amide hydrolase 1 [30-579] (Rattus norvegicus, UniProt P97612)
T1 construct: 30-579
T1 sequence (P97612 whole entry): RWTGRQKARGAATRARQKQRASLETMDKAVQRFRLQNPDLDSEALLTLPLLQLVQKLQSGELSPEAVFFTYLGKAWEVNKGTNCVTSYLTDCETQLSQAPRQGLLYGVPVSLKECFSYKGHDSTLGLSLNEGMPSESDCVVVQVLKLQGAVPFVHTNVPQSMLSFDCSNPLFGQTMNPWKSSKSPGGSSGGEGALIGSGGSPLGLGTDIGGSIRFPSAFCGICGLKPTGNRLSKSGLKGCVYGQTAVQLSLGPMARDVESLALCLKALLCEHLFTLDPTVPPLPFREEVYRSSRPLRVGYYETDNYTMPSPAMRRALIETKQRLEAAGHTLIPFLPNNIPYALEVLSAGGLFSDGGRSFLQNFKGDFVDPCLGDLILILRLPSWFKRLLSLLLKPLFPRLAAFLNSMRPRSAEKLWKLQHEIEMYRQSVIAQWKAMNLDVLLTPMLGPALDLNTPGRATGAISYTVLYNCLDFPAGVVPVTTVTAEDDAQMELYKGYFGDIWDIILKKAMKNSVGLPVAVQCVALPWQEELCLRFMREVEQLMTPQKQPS

Cannabinoid receptor 2 = Cannabinoid receptor 2 (Homo sapiens, UniProt P34972)
Chain of Cannabinoid receptor 2 (P34972 whole entry): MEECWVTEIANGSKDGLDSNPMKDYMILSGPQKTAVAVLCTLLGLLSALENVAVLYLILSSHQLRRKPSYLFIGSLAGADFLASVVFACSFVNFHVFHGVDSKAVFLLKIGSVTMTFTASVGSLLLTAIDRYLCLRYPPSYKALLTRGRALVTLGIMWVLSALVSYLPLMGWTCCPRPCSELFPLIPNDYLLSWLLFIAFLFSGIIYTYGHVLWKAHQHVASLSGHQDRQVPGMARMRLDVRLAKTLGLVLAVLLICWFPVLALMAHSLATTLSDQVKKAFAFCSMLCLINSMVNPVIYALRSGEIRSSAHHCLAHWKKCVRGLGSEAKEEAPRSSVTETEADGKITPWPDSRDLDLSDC

Cannabinoid receptor 1 = Cannabinoid receptor 1 (Homo sapiens, UniProt P21554)
Chain of Cannabinoid receptor 1 (P21554 whole entry): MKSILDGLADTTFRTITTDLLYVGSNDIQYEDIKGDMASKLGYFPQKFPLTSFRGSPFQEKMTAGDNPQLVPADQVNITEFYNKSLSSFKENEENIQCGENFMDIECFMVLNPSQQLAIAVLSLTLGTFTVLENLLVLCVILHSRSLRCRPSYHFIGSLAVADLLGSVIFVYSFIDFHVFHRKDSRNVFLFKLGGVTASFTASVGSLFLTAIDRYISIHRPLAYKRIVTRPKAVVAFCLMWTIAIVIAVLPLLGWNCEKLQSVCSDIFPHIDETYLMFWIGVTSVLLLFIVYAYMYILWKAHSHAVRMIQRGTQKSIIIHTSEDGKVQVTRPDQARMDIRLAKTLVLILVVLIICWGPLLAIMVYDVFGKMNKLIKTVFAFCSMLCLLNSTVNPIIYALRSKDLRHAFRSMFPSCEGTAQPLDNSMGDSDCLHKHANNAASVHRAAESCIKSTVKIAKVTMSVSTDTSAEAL

Structure (SMILES)	Ki [1]	Ki (Cannabinoid receptor 2)	Ki (Cannabinoid receptor 1)
CCCCCC[C@H](CC=CCCCCCCCC(=O)NCc1ccc(O)c(OC)c1)OC(=O)c1ccccc1 [Rinvanil, Benzoil]	> 10 µM	1.4 µM	1.3 µM
CCCCCC[C@H](CC=CCCCCCCCC(=O)NCc1ccc(O)c(OC)c1)OC(C)=O [Rinvanil, Acetyl]	> 10 µM	> 10 µM	> 10 µM
CCCCCCCCC=CCCCCCCCC(=O)NCc1ccc(O)c(OC)c1 [CAS_58493-49-5]	> 10 µM	> 10 µM	> 10 µM
CCCCCC[C@@H](O)CC=CCCCCCCCC(=O)NCc1ccc(O)c(OC)c1 [Rinvanil]	> 10 µM	> 10 µM	> 10 µM
CCCCCC[C@H](CC=CCCCCCCCC(=O)NCc1ccc(O)c(OC)c1)OC(=O)CCc1ccccc1 [Rinvanil, Phenyl-propionyl]	> 10 µM		
CCCCCC[C@H](CC=CCCCCCCCC(=O)NCc1cc(I)c(O)c(OC)c1)OC(=O)Cc1ccccc1 [PhAR, 5-I]	> 10 µM	1.5 µM	5 µM
COc1cc(CNC(=O)CCCCC=CC(C)C)ccc1O [CAS_404-86-4]	> 10 µM	> 10 µM	
CCCCCC[C@H](CC=CCCCCCCCC(=O)NCc1ccc(O)c(OC)c1)OC(=O)Cc1ccccc1 [PhAR]	> 10 µM	0.3 µM	2.2 µM
CCCCCC[C@H](CC=CCCCCCCCC(=O)NCc1cc(OC)c(O)cc1I)OC(=O)Cc1ccccc1 [PhAR, 6-I]	> 10 µM	2.2 µM	2.5 µM
CCCCCCC(C/C=C/CCCCCCCC(=O)NCc1ccc(O)c(OC)c1)OC(=O)Cc1ccccc1 (stereo not drawn) [PhAR, ent]	> 10 µM	0.4 µM	2.4 µM
CCCCCCC(CCCCCCCCCCC(=O)NCc1ccc(O)c(OC)c1)OC(=O)Cc1ccccc1 (stereo not given) [PhAR, Di-hydro]	> 10 µM	1.1 µM	5 µM
